The values that follow come from patent US8349811B2, “Stable 6-methoxy-2′,3′-dideoxyguanosine, method for preparing the same and pharmaceutical composition containing the same” (Nanjing Changao Pharmaceutical Science & Technology Co., …, priority 2008, dated 2013).

SMILES strings stand for the structures. Entries after “also recorded” stand apart in the source; their conditions may differ.

Data set [1] relates to HIV (Human Immunodeficiency Virus). The data set is described as follows: Anti-HIV experimental study of the inventors.
A short description of data set [2]: Acceleration test inspection at 30 degrees centigrade and humidity 90% (character and water content). Type of data set: physicochemical. The settings on record: for Acceleration Test Inspection, Water Content / Acceleration Test Inspection, Character: 30 degrees centigrade, humidity 90%. The procedure: (§1) Table 1 is a comparison table, wherein, the 6-methoxy-2′,3′-dideoxyguanosine with less than 6% (wt %) of water content is placed in different humidity environments at 5 degrees centigrade for carrying out water-absorbing tests, the products at the corresponding time points are placed in the environment with the temperature of 30 degrees centigrade and the humidity of 90% (wt %) for carrying out the acceleration test inspection, the sampling inspection are carried out at the 15th day, the 30th day and the 60th day respectively, and the inspection indexes comprise the character and the water content.

The nature of data set [3]: Metabolism in plasma to ddG. Type of data set: in vitro ADME. The following applies: metabolite 2′,3′-dideoxyguanosine (ddG).
Data set [4] is described as follows: Water-absorbing test in different humidity environments at 5 degrees centigrade. In kind it is physicochemical. The procedure: as §1
The nature of data set [5]: Moisture absorption and handling under the general conditions. Type of data set: physicochemical. The settings on record: for moisture absorption: general conditions.
For another data set, the system named is hepatitis B virus (HBV). The following applies: reported in Chinese patent CN1493301A; cited from earlier work.
Data set [6] is described as follows: Water content of the product of the Examples by the Karl-Fischer method. Type of data set: physicochemical. The following applies: after water absorption (Examples 1-3) or vacuum drying (Examples 4-5). On the procedure:
1 kg of powder of 6-methoxy-2′,3′-dideoxyguanosine with 2.7% (wt %) of water content is laid in a plate flat and placed in the environment with the temperature of 5 degrees centigrade and the humidity of 60% (wt %), is mixed every 1-4 hours, and the required product is obtained after 48 hours.
0.5 kg of powder of 6-methoxy-2′,3′-dideoxyguanosine with 1.5% (wt %) of water content is laid in a plate flat and placed in the environment with the temperature of 15 degrees centigrade and the humidity of 40% (wt %), is mixed every 3-5 hours, and the required product is obtained after 36 hours.
0.5 kg of powder of 6-methoxy-2′,3′-dideoxyguanosine with 3.2% (wt %) of water content is laid in a plate flat and placed in the environment with the temperature of 0 degrees centigrade and the humidity of 90% (wt %), is mixed every 2 hours, and the required product is obtained after 36 hours.
1.5 kg of powder of 6-methoxy-2′,3′-dideoxyguanosine with 60.5% (wt %) of water content is laid in a plate flat and placed in a vacuum drying box, anhydrous calcium chloride is taken as a drying agent, vacuumizing is carried out by a water pump at the temperature of 25 degrees centigrade, decompression drying is further carried out, and the required product is obtained after 48 hours.
1.0 kg of powder of 6-methoxy-2′,3′-dideoxyguanosine with 40.5% (wt %) of water content is laid in a plate flat and placed in a vacuum drying box, phosphorus pentoxide is taken as a drying agent, vacuum decompression drying is carried out at the temperature of 15 degrees centigrade, and the required product is obtained after 38 hours.

A further data set concerns DHBV DNA replication. The data set is described as follows: Suppression of DHBV DNA replication. The settings on record: competition with ddCTP.
Setting [7] is: product of placement time 14 hours, 15th Day.
The mark [8] stands for this setting: product of placement time 14 hours, 30th Day.
Setting [9] is: product of placement time 14 hours, 60th Day.
The mark [10] stands for this setting: product of placement time 2 days, 15th Day.
The mark [11] stands for this setting: product of placement time 2 days, 30th Day.
The mark [12] stands for this setting: product of placement time 2 days, 60th Day.
The mark [13] stands for this setting: product of placement time 3 days, 15th Day.
Setting [14] is: product of placement time 3 days, 30th Day.
The mark [15] stands for this setting: product of placement time 3 days, 60th Day.
Where [16] appears, read: product of placement time 4 days, 15th Day.
[17] abbreviates: product of placement time 4 days, 30th Day.
The mark [18] stands for this setting: product of placement time 4 days, 60th Day.
Where [19] appears, read: product of placement time 10 days, 15th Day.
Setting [20] is: product of placement time 10 days, 30th Day.
[21] abbreviates: product of placement time 10 days, 60th Day.

Regarding `COc1nc(N)nc2c1ncn2[C@H]1CC[C@@H](CO)O1` [6-methoxy-2′,3′-dideoxyguanosine], in data set [1], the anti-HIV activity entry was “plays the role of fighting against the HIV”. The “Acceleration Test Inspection, Water Content” value stood at 23.4 wt % in data set [2] (product of placement time 1 hour, 15th Day); 22.4 wt % in data set [2] (product of placement time 1 hour, 30th Day); 21.8 wt % in data set [2] (product of placement time 1 hour, 60th Day); 22.9 wt % in data set [2] (product of placement time 2 hours, 15th Day); 22.1 wt % in data set [2] (product of placement time 2 hours, 30th Day); 21.5 wt % in data set [2] (product of placement time 2 hours, 60th Day). The “Acceleration Test Inspection, Water Content” value in data set [2] (setting [7]) is recorded as 22.7 wt %; in data set [2] (setting [8]), 22.0 wt %; in data set [2] (setting [9]), 21.4 wt %; in data set [2] (setting [10]) it was 23.0 wt %; in data set [2] (setting [11]), 22.5 wt %; in data set [2] (setting [12]), 21.6 wt %. For the same compound, the “Acceleration Test Inspection, Water Content” value in data set [2] (setting [13]) was found to be 22.1 wt %; in data set [2] (setting [14]), 21.8 wt %; in data set [2] (setting [15]), 21.5 wt %; in data set [2] (setting [16]), 22.9 wt %; in data set [2] (setting [17]), 21.8 wt %; in data set [2] (setting [18]), 21.8 wt %. Moreover, the “Acceleration Test Inspection, Water Content” value in data set [2] (setting [19]) is reported as 22.0 wt %; in data set [2] (setting [20]), 21.7 wt %; in data set [2] (setting [21]), 21.9 wt %. The “Acceleration Test Inspection, Character” value in data set [2] (setting [7]), in data set [2] (setting [8]), in data set [2] (setting [9]), in data set [2] (setting [10]), in data set [2] (setting [11]) and in data set [2] (setting [12]) was “Powder” throughout. For the same compound, the “Acceleration Test Inspection, Character” value in data set [2] (setting [13]), in data set [2] (setting [14]), in data set [2] (setting [15]), in data set [2] (setting [16]), in data set [2] (setting [17]) and in data set [2] (setting [18]) was “Powder” in each case. For the same compound, the “Acceleration Test Inspection, Character” value in data set [2] (setting [19]), in data set [2] (setting [20]) and in data set [2] (setting [21]) was “Powder” each time. Besides, the character result in data set [2] (water content greater than 6% (wt %), summary of Table 1) was “basically kept unchanged”. The metabolism in plasma result in data set [3] is listed as “rapidly metabolized in plasma to 2′,3′-dideoxyguanosine (ddG)”. Besides, the “Water Content When Placed in Different Humidity Environments” value is recorded as 2.7 wt % in data set [4] (Humidity 40%, placement time 0 hour); 4.3 wt % in data set [4] (Humidity 40%, placement time 1 hour); 5.4 wt % in data set [4] (Humidity 40%, placement time 2 hours); 8.7 wt % in data set [4] (Humidity 40%, placement time 14 hours); 12.6 wt % in data set [4] (Humidity 40%, placement time 2 days); 21.8 wt % in data set [4] (Humidity 40%, placement time 3 days). The “Water Content When Placed in Different Humidity Environments” value in data set [4] (Humidity 40%, placement time 4 days) is 22.4 wt %; in data set [4] (Humidity 40%, placement time 10 days), 21.8 wt %; in data set [4] (Humidity 60%, placement time 0 hour), 2.7 wt %; in data set [4] (Humidity 60%, placement time 1 hour), 4.7 wt %; in data set [4] (Humidity 60%, placement time 2 hours) it was 5.7 wt %; in data set [4] (Humidity 60%, placement time 14 hours) it was 8.6 wt %. Also, the “Water Content When Placed in Different Humidity Environments” value was 16.3 wt % in data set [4] (Humidity 60%, placement time 2 days); 22.5 wt % in data set [4] (Humidity 60%, placement time 3 days); 23.64 wt % in data set [4] (Humidity 60%, placement time 4 days); 23.5 wt % in data set [4] (Humidity 60%, placement time 10 days); 2.7 wt % in data set [4] (Humidity 90%, placement time 0 hour); 5.1 wt % in data set [4] (Humidity 90%, placement time 1 hour). The “Water Content When Placed in Different Humidity Environments” value in data set [4] (Humidity 90%, placement time 2 hours) is given as 5.8 wt %; in data set [4] (Humidity 90%, placement time 14 hours), 8.9 wt %; in data set [4] (Humidity 90%, placement time 2 days) it was 15.9 wt %; in data set [4] (Humidity 90%, placement time 3 days), 22.7 wt %; in data set [4] (Humidity 90%, placement time 4 days), 22.8 wt %; in data set [4] (Humidity 90%, placement time 10 days), 21.9 wt %. Besides, the “behaviour during the smashing process” value in data set [5] (water content higher than 30% (wt %)) is on record as “easy to be bonded into blocks during the smashing process”. For the same compound, in data set [5] (water content lower than 6% (wt %)), the moisture absorption result was “easy to absorb the water; also recorded: very easy to absorb moisture and be blocked”. Besides, the anti-HBV activity result with hepatitis B virus (HBV) was “anti-HBV activity”.
As to `COc1nc(N)nc2c1ncn2[C@H]1CC[C@@H](CO)O1` [Example 1, 6-methoxy-2′,3′-dideoxyguanosine], the “water content of the required product” value in data set [6] was 23.5 % (wt %).
For the compound `COc1nc(N)nc2c1ncn2[C@H]1CC[C@@H](CO)O1` [Example 2, 6-methoxy-2′,3′-dideoxyguanosine], the “water content of the required product” value in data set [6] is listed as 12.5 % (wt %).
Still for that read-out and setting: with `COc1nc(N)nc2c1ncn2[C@H]1CC[C@@H](CO)O1` [Example 3, 6-methoxy-2′,3′-dideoxyguanosine] the figure was 23.2 % (wt %); with `COc1nc(N)nc2c1ncn2[C@H]1CC[C@@H](CO)O1` [Example 4, 6-methoxy-2′,3′-dideoxyguanosine], 22.5 % (wt %); with `COc1nc(N)nc2c1ncn2[C@H]1CC[C@@H](CO)O1` [Example 5, 6-methoxy-2′,3′-dideoxyguanosine], 18.5 % (wt %).
With `Nc1nc2c(ncn2[C@H]2CC[C@@H](COP(=O)(O)OP(=O)(O)OP(=O)(O)O)O2)c(=O)[nH]1` [ddGTP], the “suppression of DHBV DNA replication” value in the data set with DHBV DNA replication was “can selectively compete with the ddCTP for suppressing the DHBV DNA replication”.
Take `COc1nc(N)nc2c1ncn2[C@H]1CC[C@@H](CO)O1` [stable 6-methoxy-2′,3′-dideoxyguanosine, 6-methoxy-2′,3′-dideoxyguanosine]: the moisture absorption result in data set [5] (stable form, water content 6-30% (wt %)) is “difficult to absorb the moisture”. Further, the stability result in data set [5] (stable form, water content 6-30% (wt %), room temperature) is listed as “very stable at room temperature”.
